In publication PMC5539068, “Structural optimization and evaluation of novel 2-pyrrolidone-fused (2-oxoindolin-3-ylidene)methylpyrrole derivatives as potential VEGFR-2/PDGFRβ inhibitors” (Chemistry Central Journal, 2017):
“Also recorded” adds a separate entry of the source. Read-outs that look alike come from different tables or passages of the source.

Experiments:
786-O cells = test: Cell proliferation assay (MTT), 786-O; conditions: for IC50: Homo sapiens, 786-0, 72 h, read-out: IC50 786-O; for selective index (SI) 786-O: versus Detroit 551
Experimental: (§2) Serial dilutions of indicated compounds were added and incubated for additional 72 h. At the end of the incubation, cell viability was determined by the 3-(4,5-dimethylthiazol-2-yl)-2,5-diphenyl tetrazolium bromide (MTT) assay. The MTT formazan crystals formed were dissolved in DMSO, and the absorbance at 570 nm was recorded using a microplate spectrophotometer (Thermo Fisher Scientific, Waltham, MA, USA) [46].

HCT116 cells [1] = test: Cell proliferation assay (MTT), HCT116; conditions: for IC50: Homo sapiens, HCT-116, 72 h, read-out: IC50 HCT116; for selective index (SI) HCT116: versus Detroit 551
Experimental: as §2

NCI-H460 cells = test: Cell proliferation assay (MTT), NCI-H460; conditions: for IC50: Homo sapiens, NCI-H460, 72 h, read-out: IC50 NCI-H460; for selective index (SI) NCI-H460: versus Detroit 551
Experimental: as §2

VEGFR-2 = VEGFR-2 (Homo sapiens, UniProt P35968); test: In-vitro kinase assay (HotSpot, 33P), VEGFR-2; conditions: for % inhibition of VEGFR-2 at 80 nM: 80 nM compound, ATP 10.0 μM; for inhibition at 0.08 µM: read-out: % inhibition of VEGFR-2 at 80 nM
VEGFR-2, sequence (P35968 20-1356): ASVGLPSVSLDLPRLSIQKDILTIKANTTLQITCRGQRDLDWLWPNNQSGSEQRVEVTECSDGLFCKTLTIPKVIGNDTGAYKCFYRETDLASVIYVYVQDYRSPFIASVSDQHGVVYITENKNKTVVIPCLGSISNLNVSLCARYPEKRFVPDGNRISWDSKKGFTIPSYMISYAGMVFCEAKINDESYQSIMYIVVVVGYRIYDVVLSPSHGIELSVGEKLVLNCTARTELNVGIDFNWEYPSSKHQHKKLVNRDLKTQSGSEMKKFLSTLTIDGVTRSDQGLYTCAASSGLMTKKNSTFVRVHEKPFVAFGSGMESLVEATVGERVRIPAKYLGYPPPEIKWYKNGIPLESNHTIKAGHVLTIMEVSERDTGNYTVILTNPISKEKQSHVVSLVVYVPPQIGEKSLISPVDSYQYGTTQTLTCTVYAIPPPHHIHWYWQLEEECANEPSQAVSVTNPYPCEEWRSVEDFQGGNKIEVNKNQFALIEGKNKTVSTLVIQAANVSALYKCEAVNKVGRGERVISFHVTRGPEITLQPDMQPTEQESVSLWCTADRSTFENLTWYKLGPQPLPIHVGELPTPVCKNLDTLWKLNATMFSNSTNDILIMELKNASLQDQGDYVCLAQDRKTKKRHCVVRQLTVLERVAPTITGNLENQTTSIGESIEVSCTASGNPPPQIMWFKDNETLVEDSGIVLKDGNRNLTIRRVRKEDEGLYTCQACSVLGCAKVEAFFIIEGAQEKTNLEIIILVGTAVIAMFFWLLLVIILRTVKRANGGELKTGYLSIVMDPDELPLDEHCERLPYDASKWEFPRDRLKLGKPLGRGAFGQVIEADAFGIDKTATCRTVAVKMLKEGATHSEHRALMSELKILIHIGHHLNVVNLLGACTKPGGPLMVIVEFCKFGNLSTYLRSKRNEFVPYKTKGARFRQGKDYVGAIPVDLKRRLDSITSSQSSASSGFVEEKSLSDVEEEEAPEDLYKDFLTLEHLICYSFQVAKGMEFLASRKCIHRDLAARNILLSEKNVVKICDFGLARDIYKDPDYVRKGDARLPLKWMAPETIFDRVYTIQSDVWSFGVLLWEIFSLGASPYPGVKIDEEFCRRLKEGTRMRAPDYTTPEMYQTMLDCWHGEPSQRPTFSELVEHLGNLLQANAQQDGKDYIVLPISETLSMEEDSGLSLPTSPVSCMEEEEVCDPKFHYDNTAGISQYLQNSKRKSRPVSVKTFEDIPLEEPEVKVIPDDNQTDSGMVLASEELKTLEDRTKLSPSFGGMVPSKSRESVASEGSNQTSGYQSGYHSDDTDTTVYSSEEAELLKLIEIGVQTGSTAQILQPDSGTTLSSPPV
Experimental: Next, the VEGFR-2 phosphorylation inhibitory activities of the newly synthesized compounds were evaluated.
(§3) Briefly, specific kinase and substrate and required cofactors were prepared in reaction buffer. Test compounds were added to the reaction and after 20 min a mixture of ATP (Sigma, St. Louis MO, USA) and ^33P ATP (Perkin Elmer, Waltham MA, USA) was added to make a final concentration of 10.0 μM. Reactions were stood at room temperature for 120 min, and then the reactions were spotted onto a P81 ion exchange filter paper (Whatman Inc., Piscataway, NJ, USA). Unbound phosphate was removed by extensive washing of filters in 0.1% phosphoric acid. Kinase activity data was reported as the percent remaining kinase activity in test compounds compared to the solvent control dimethyl sulfoxide (DMSO).

Detroit 551 cells [2] = test: Cell proliferation assay (MTT), normal fibroblast Detroit 551; conditions: Homo sapiens, Detroit 551, 72 h, read-out: IC50 Detroit 551
Experimental: as §2

HUVEC cells = test: In-vitro VEGF-induced Matrigel tube formation assay; type: cell-based, human; conditions: for IC50: Homo sapiens, HUVEC, VEGF 10 ng/ml, Matrigel, 6 h, read-out: IC50 Area (in vitro tube formation); for potency in inhibiting in vitro tube formation relative to sunitinib in terms of IC50: versus sunitinib
Experimental: The in vitro tube formation assay was assessed using ibidi μ-Slides (15-well, ibidi GmbH, Martinsried, Germany) in accordance with manufacturer’s protocol. Briefly, growth factor reduced Matrigel (10 μl) (Sigma, St. Louis MO) was added to the inner well of ibidi μ-Slides, and incubated at 37 °C for 1 h. […] 10,000 HUVEC cells in 50 μl of above growth medium was added to Matrigel (Sigma, St. Louis MO, USA) coated ibidi μ-Slides. After 6 h of incubation at 37 °C, the supernatant was discarded, and 50 μl of serum-free medium with diluted calcein AM (6.25 μg/ml) was added to above ibidi μ-Slides. After incubation in the dark at room temperature for 30 min, the μ-Slides were washed with PBS (50 μl) and fluorescence pictures were taken at 485 nm with a Leica DM1000 LED microscope (Leica Microsystems, Wetzlar, Hessen, Germany).

Detroit 551 cells [3] = system: Detroit 551 cells
Experimental: (§1) Cells were seeded at 5000 cells/well on a 96-well plate for 24 h. The indicated compounds in different concentrations (100 μl) were added to cells. After 6 h, old medium was aspirated, and the cells were washed three times with PBS. WST-8 (Dojindo, Rockville, MD, USA) (10 µl) was added to each well, and the absorbance of the plate was recorded at 450 nm on a microplate spectrophotometer (Thermo Fisher Scientific, Waltham, MA, USA).

HCT116 cells [4] = system: HCT116 cells
Experimental: as §1

PDGFRβ = PDGFRβ (Homo sapiens, UniProt P09619); test: In-vitro kinase assay (HotSpot, 33P), PDGFRβ
PDGFRβ, sequence (P09619 33-1106): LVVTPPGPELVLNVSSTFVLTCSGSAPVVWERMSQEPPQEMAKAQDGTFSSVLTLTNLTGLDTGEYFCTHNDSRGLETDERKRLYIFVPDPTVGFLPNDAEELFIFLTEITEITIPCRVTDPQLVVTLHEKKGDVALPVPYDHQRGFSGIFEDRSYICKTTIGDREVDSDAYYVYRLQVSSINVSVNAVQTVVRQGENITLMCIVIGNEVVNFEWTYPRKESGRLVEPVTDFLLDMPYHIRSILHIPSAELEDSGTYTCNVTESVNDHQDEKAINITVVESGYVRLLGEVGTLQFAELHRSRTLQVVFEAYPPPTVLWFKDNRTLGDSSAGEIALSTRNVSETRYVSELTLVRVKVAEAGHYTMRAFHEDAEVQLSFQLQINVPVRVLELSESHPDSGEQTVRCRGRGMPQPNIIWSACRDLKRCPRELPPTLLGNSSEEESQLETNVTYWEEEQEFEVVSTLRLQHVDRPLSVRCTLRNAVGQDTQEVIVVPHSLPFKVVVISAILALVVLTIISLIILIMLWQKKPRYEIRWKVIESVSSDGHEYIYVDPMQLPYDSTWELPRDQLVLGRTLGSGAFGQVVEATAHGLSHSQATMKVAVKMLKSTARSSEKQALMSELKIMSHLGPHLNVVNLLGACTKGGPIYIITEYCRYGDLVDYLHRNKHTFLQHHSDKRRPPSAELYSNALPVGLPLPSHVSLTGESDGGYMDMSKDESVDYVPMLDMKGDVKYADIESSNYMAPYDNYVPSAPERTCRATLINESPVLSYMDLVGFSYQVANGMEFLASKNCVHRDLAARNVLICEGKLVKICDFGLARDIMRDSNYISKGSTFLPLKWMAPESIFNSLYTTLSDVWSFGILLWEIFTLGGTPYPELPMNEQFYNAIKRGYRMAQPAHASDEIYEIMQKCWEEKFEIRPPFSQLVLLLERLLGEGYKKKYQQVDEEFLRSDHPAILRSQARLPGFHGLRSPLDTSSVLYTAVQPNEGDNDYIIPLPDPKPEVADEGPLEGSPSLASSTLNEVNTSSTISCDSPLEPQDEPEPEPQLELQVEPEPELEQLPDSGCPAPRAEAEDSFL

HCT116 cells [5] = test: Cell cycle analysis by image cytometry (DAPI); conditions: 24 h, preliminary
Experimental: Cell cycle profiles of HCT116 cells were determined with an NC-3000 image cytometer (ChemoMetec, Allerod, Denmark) in accordance with manufacturer’s protocol. Briefly, cells were seeded at 200,000 cells/well on a 6-well plate for 24 h. […] After incubation for 24 h, 100,000 cells were harvested and centrifuged at 400 g at room temperature for 5 min, washed once with PBS (50 μM), and resuspended in lysis buffer (50 μl) (ChemoMetec, Allerod, Denmark) containing 10 μg/ml of 2-(4-amidinophenyl)-1H-indole-6-carboxamidine (DAPI, ChemoMetec, Allerod, Denmark). […] The cellular fluorescence was measured with an NC-3000 image cytometer using NC-SlideA8 (ChemoMetec, Allerod, Denmark). The NC-3000 software (ChemoMetec, Allerod, Denmark) was used for image acquisition, image analysis and quantification, and data visualization.

Aurora A = target: T1, Aurora A (Homo sapiens, UniProt O14965); test: In-vitro kinase assay (HotSpot, 33P), Aurora A; conditions: ATP 10.0 μM; for % inhibition of Aurora A at 1.0 μM: 1.0 μM compound; for inhibition at 1 µM: read-out: % inhibition of Aurora A at 1.0 μM, 1.0 μM compound
T1 sequence (O14965 1-403): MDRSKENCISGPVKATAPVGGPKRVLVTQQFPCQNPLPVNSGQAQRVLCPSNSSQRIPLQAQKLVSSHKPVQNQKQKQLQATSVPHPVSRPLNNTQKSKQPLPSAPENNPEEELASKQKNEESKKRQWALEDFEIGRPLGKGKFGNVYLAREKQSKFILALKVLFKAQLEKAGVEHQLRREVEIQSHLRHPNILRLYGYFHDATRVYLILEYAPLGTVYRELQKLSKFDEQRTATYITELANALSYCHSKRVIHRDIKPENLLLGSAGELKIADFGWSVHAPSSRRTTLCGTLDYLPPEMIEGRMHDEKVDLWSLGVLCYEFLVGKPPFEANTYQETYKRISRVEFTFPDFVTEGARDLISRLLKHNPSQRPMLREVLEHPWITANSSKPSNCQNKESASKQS
Experimental: as §3

Row | melting point | IC50 (786-O cells) | IC50 (HCT116 cells [1]) | IC50 (NCI-H460 cells) | inhibition at 0.08 µM (VEGFR-2) | SMILES | % inhibition of VEGFR-2 at 80 nM (VEGFR-2) | IC50 (Detroit 551 cells [2]) | selective index (SI) HCT116 (HCT116 cells [1]) | selective index (SI) NCI-H460 (NCI-H460 cells) | also measured
1 | 252 to 255 °C | > 10 µM | > 10 µM | > 10 µM | 0% | CCN(CC)CCN1Cc2[nH]c(/C=C3\C(=O)Nc4ccc(S(N)(=O)=O)cc43)c(C)c2C1=O [Compound 4, (Z)-3-((5-(2-(diethylamino)ethyl)-3-methyl-4-oxo-1,4,5,6-tetrahydropyrrolo[3,4-b]pyrrol-2-yl)methylene)-2-oxoindoline-5-sulfonamide] | did not differ from that of the 1% DMSO (control) | > 10 µM |  |  | 
2 | 244 to 247 °C | > 10 µM | 8.98 ± 0.92 µM | > 10 µM | 20% | CCN(CC)CCN1Cc2[nH]c(/C=C3\C(=O)Nc4ccc(S(=O)(=O)N(C)C)cc43)c(C)c2C1=O [Compound 5, (Z)-3-((5-(2-(diethylamino)ethyl)-3-methyl-4-oxo-1,4,5,6-tetrahydropyrrolo[3,4-b]pyrrol-2-yl)methylene)-N,N-dimethyl-2-oxoindoline-5-sulfonamide] |  | > 10 µM | >1.11 |  | 
3 | 245 to 247 °C | > 10 µM | 4.2 ± 0.57 µM | > 10 µM | 0% | CCN(CC)CCN1Cc2[nH]c(/C=C3\C(=O)Nc4ccc(S(=O)(=O)N(CC)CC)cc43)c(C)c2C1=O [Compound 6, (Z)-3-((5-(2-(diethylamino)ethyl)-3-methyl-4-oxo-1,4,5,6-tetrahydropyrrolo[3,4-b]pyrrol-2-yl)methylene)-N,N-diethyl-2-oxoindoline-5-sulfonamide] |  | > 10 µM | >2.38 |  | 
4 | 225 to 228 °C | > 10 µM | > 10 µM | > 10 µM | 15% | CCN(CC)CCN1Cc2[nH]c(/C=C3\C(=O)Nc4ccc(S(=O)(=O)Nc5ccccc5)cc43)c(C)c2C1=O [Compound 8, (Z)-3-((5-(2-(Diethylamino)ethyl)-3-methyl-4-oxo-1,4,5,6-tetrahydropyrrolo[3,4-b]pyrrol-2-yl)methylene)-2-oxo-N-phenylindoline-5-sulfonamide] | did not differ from that of the 1% DMSO (control) | > 10 µM |  |  | 
5 | 231 to 234 °C | > 10 µM | > 10 µM | > 10 µM | 0% | CCN(CC)CCN1Cc2[nH]c(/C=C3\C(=O)Nc4ccc(S(=O)(=O)Nc5ccc(C(F)(F)F)cc5)cc43)c(C)c2C1=O [Compound 9, (Z)-3-((5-(2-(Diethylamino)ethyl)-3-methyl-4-oxo-1,4,5,6-tetrahydropyrrolo[3,4-b]pyrrol-2-yl)methylene)-2-oxo-N-(4-(trifluoromethyl)phenyl)indoline-5-sulfonamide] | did not differ from that of the 1% DMSO (control) | > 10 µM |  |  | 
6 | 245 to 247 °C | > 10 µM | > 10 µM | > 10 µM | 4% | CCN(CC)CCN1Cc2[nH]c(/C=C3\C(=O)Nc4ccc(NS(C)(=O)=O)cc43)c(C)c2C1=O [Compound 10, (Z)-N-(3-((5-(2-(Diethylamino)ethyl)-3-methyl-4-oxo-1,4,5,6-tetrahydropyrrolo[3,4-b]pyrrol-2-yl)methylene)-2-oxoindolin-5-yl)methanesulfonamide] |  | > 10 µM |  |  | 
7 | 212 to 215 °C | 8.49 ± 0.46 µM | > 10 µM | 7.22 ± 1.01 µM | 0% | CCN(CC)CCN1Cc2[nH]c(/C=C3\C(=O)Nc4ccc(C(F)(F)F)cc43)c(C)c2C1=O [Compound 11, (Z)-3-((5-(2-(Diethylamino)ethyl)-3-methyl-4-oxo-1,4,5,6-tetrahydropyrrolo[3,4-b]pyrrol-2-yl)methylene)-5-(trifluoromethyl)indolin-2-one] | did not differ from that of the 1% DMSO (control); also recorded: no inhibitory activity | > 10 µM |  | >1.39 | selective index (SI) 786-O (786-O cells): >1.18
8 | 229 to 230 °C | > 10 µM | > 10 µM | 6.61 ± 0.8 µM | 13% | CCN(CC)CCN1Cc2[nH]c(/C=C3\C(=O)Nc4ccc([N+](=O)[O-])cc43)c(C)c2C1=O [Compound 12, (Z)-3-((5-(2-(diethylamino)ethyl)-3-methyl-4-oxo-1,4,5,6-tetrahydropyrrolo[3,4-b]pyrrol-2-yl)methylene)-5-nitroindolin-2-one] |  | > 10 µM |  | >1.51 | 
9 | 214 to 216 °C | 7.86 ± 0.3 µM | 3.06 ± 0.67 µM | 6.37 ± 1.09 µM | 41% | CCN(CC)CCN1Cc2[nH]c(/C=C3\C(=O)Nc4ccc(OC)cc43)c(C)c2C1=O [Compound 13, (Z)-3-((5-(2-(diethylamino)ethyl)-3-methyl-4-oxo-1,4,5,6-tetrahydropyrrolo[3,4-b]pyrrol-2-yl)methylene)-5-methoxyindolin-2-one] |  | > 10 µM | >3.27 | >1.57 | IC50 (HUVEC cells): 0.74 ± 0.16 µM; potency in inhibiting in vitro tube formation relative to sunitinib in terms of IC50 (HUVEC cells): twofold higher; selective index (SI) 786-O (786-O cells): >1.27; IC50 (PDGFRβ): 0.0762 µM; IC50 (VEGFR-2): 0.0478 µM; cell cycle profile effect (HCT116 cells [5]; 3.0 μM): increase in polyploid cells; % inhibition of Aurora A at 1.0 μM (Aurora A): 92.9%; inhibition at 1 µM (Aurora A): 94.4%
10 |  | 7.89 ± 0.6 µM | 4.6 ± 0.23 µM | 7.51 ± 0.78 µM |  | CCN(CC)CCNC(=O)c1c(C)[nH]c(/C=C2\C(=O)Nc3ccc(F)cc32)c1C [Sunitinib, sunitinib, reference compound] |  | 9.48 ± 0.18 µM |  |  | IC50 (HUVEC cells): 1.54 ± 0.08 µM; acute cytotoxicity, Detroit 551 (Detroit 551 cells [3]): neither our compounds nor sunitinib had acute cytotoxicity; acute cytotoxicity, HCT116 (HCT116 cells [4]): neither our compounds nor sunitinib had acute cytotoxicity; cell cycle profile effect (HCT116 cells [5]; 5.0 μM): G0/G1 cell cycle arrest; inhibition at 1 µM (Aurora A): 50.7%

Row | SMILES | melting point | IC50 (786-O cells) | IC50 (HCT116 cells [1]) | IC50 (NCI-H460 cells) | inhibition at 0.08 µM (VEGFR-2) | % inhibition of VEGFR-2 at 80 nM (VEGFR-2) | IC50 (Detroit 551 cells [2]) | selective index (SI) HCT116 (HCT116 cells [1]) | selective index (SI) NCI-H460 (NCI-H460 cells) | also measured
11 | CCN(CC)CCN1Cc2[nH]c(/C=C3\C(=O)Nc4ccc(S(=O)(=O)N(CCCl)CCCl)cc43)c(C)c2C1=O [Compound 7, (Z)-N,N-Bis(2-chloroethyl)-3-((5-(2-(diethylamino)ethyl)-3-methyl-4-oxo-1,4,5,6-tetrahydropyrrolo[3,4-b]pyrrol-2-yl)methylene)-2-oxoindoline-5-sulfonamide] |  | > 10 µM | 3.65 ± 0.19 µM | > 10 µM | 46% |  | 6.06 ± 0.4 µM | 1.66 | <0.61 | IC50 (HUVEC cells): 0.76 ± 0.11 µM; potency in inhibiting in vitro tube formation relative to sunitinib in terms of IC50 (HUVEC cells): twofold higher; acute cytotoxicity, Detroit 551 (Detroit 551 cells [3]; 10 μM, 6 h, WST-8): neither our compounds nor sunitinib had acute cytotoxicity; acute cytotoxicity, HCT116 (HCT116 cells [4]; 10 μM, 6 h, WST-8): neither our compounds nor sunitinib had acute cytotoxicity; selective index (SI) 786-O (786-O cells): <0.61; IC50 (PDGFRβ): 0.0632 µM; IC50 (VEGFR-2): 0.0237 µM; cell cycle profile effect (HCT116 cells [5]; 5.0 μM): increase in polyploid cells; % inhibition of Aurora A at 1.0 μM (Aurora A): 94.4%; inhibition at 1 µM (Aurora A): 92.9%
